Laboratory results as given in ChEMBL document CHEMBL1150976, “The selectivity of protein kinase inhibitors: a further update” (Biochem J, 2007).

How the values were obtained:
[1] = target: SRSF protein kinase 1 (Homo sapiens) (UniProt Q96SB4); experiment: Percentage SRPK1 activity remaining in the presence of 0.1uM inhibitor
[2] = target: Tyrosine-protein kinase CSK (Homo sapiens, UniProt P41240); experiment: Percentage CSK activity remaining in the presence of 0.1uM inhibitor
[3] = target: Serine/threonine-protein kinase PLK1 (Homo sapiens, UniProt P53350); experiment: Percentage PLK1 activity remaining in the presence of 0.1uM inhibitor
Serine/threonine-protein kinase PLK1, sequence (P53350 whole entry): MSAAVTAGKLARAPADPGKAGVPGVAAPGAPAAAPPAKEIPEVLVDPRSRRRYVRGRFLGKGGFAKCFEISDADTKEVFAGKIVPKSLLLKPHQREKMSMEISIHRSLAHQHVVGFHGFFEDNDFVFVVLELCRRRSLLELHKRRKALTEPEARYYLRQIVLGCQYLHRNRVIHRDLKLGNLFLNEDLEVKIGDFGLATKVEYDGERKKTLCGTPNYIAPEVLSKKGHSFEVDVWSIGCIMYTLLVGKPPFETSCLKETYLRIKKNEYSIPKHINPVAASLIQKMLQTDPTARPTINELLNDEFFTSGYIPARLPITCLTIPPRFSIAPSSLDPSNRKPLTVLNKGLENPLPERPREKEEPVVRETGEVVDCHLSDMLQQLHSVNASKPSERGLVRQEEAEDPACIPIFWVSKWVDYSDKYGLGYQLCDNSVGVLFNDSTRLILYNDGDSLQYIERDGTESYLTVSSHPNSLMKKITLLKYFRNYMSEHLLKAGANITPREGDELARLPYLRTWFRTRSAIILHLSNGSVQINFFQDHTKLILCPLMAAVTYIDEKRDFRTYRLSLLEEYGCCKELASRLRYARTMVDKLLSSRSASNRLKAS

[4] = target: MAP kinase-activated protein kinase 2 (Homo sapiens) (UniProt P49137); experiment: Percentage MAPKAPK2 activity remaining in the presence of 0.1uM inhibitor
[5] = target: Protein kinase C alpha type (Homo sapiens) (UniProt P17252); experiment: Percentage PKCalpha activity remaining in the presence of 0.1uM inhibitor
[6] = target: Serine/threonine-protein kinase pim-2 (Homo sapiens, UniProt Q9P1W9); experiment: Percentage PIM2 activity remaining in the presence of 0.1uM inhibitor
Serine/threonine-protein kinase pim-2, sequence (Q9P1W9 whole entry, looked up): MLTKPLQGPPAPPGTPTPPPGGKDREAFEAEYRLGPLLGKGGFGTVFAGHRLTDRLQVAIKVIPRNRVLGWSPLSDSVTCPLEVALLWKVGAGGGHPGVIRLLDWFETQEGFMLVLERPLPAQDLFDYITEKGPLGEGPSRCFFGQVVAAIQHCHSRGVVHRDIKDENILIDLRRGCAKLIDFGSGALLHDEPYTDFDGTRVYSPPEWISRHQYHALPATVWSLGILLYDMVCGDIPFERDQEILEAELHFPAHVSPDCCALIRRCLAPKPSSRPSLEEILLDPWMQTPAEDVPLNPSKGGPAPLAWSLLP

[7] = target: Serine/threonine-protein kinase pim-3 (Homo sapiens, UniProt Q86V86); experiment: Percentage PIM3 activity remaining in the presence of 0.1uM inhibitor
[8] = target: Serine/threonine-protein kinase PAK 5 (Homo sapiens) (UniProt Q9P286); experiment: Percentage PAK5 activity remaining in the presence of 0.1uM inhibitor
Serine/threonine-protein kinase PAK 5 (Homo sapiens), sequence (Q9P286 whole entry, looked up): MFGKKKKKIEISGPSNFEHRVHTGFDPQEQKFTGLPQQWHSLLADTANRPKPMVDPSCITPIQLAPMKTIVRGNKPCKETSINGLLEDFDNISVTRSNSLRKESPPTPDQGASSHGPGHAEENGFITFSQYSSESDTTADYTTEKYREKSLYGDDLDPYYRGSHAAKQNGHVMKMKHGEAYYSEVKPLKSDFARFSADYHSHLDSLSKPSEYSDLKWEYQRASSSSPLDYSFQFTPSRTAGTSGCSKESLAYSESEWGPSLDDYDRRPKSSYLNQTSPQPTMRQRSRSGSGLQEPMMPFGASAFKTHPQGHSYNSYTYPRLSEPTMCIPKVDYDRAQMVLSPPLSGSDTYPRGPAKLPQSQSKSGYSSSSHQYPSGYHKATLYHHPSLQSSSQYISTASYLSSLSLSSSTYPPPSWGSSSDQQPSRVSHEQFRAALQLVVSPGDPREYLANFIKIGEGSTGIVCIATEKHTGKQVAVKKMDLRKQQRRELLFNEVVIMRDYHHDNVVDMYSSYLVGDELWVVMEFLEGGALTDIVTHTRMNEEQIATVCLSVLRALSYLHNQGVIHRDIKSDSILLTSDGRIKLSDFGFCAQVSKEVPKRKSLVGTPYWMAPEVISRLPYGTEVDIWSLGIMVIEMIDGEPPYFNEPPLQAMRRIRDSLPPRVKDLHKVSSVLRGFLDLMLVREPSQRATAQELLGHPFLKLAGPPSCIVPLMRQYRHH

[9] = target: MAP kinase-activated protein kinase 3 (Homo sapiens) (UniProt Q16644); experiment: Percentage MAPKAPK3 activity remaining in the presence of 0.1uM inhibitor
[10] = target: T1, Eukaryotic elongation factor 2 kinase (Homo sapiens) (UniProt O00418); experiment: Percentage EF2K activity remaining in the presence of 0.1uM inhibitor
T1 sequence (whole entry): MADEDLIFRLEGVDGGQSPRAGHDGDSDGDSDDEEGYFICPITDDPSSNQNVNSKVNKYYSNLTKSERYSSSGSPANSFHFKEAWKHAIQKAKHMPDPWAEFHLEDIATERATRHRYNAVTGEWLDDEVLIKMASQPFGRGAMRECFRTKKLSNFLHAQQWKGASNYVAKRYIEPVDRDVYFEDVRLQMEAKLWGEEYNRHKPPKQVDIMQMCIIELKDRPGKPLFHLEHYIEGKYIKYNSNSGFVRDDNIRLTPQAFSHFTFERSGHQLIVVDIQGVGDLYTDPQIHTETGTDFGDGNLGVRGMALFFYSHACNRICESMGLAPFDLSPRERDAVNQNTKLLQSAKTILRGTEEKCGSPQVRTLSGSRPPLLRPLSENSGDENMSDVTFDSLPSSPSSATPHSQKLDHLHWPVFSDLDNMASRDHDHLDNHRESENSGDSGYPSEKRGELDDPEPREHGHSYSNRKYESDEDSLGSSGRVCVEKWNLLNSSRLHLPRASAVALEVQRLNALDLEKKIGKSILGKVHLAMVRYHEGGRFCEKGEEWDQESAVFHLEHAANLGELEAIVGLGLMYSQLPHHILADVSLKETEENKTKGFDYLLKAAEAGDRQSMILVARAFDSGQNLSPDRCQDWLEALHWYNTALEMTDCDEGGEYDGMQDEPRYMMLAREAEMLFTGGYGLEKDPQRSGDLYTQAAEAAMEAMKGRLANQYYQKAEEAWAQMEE

[11] = target: MAP kinase-interacting serine/threonine-protein kinase 2 (Homo sapiens) (UniProt Q9HBH9); experiment: Percentage MNK2 activity remaining in the presence of 0.1uM inhibitor
MAP kinase-interacting serine/threonine-protein kinase 2 (Homo sapiens), sequence (Q9HBH9 whole entry, looked up): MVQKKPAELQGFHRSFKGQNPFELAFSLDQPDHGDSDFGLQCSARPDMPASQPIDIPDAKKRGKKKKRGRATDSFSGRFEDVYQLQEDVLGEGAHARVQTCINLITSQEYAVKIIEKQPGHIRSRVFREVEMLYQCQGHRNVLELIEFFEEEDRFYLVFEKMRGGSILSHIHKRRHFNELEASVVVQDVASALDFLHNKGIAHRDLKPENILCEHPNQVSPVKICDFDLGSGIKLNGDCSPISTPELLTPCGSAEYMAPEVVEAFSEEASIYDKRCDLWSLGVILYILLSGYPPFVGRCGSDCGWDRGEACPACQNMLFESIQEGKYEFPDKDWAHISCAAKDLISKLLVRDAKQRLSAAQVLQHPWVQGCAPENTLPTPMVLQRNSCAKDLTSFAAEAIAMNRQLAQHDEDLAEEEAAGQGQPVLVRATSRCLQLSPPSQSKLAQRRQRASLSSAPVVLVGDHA

[12] = target: T2, Serine/threonine-protein kinase Nek2 (Homo sapiens) (UniProt P51955); experiment: Percentage NEK2a activity remaining in the presence of 0.1uM inhibitor
T2 sequence (whole entry): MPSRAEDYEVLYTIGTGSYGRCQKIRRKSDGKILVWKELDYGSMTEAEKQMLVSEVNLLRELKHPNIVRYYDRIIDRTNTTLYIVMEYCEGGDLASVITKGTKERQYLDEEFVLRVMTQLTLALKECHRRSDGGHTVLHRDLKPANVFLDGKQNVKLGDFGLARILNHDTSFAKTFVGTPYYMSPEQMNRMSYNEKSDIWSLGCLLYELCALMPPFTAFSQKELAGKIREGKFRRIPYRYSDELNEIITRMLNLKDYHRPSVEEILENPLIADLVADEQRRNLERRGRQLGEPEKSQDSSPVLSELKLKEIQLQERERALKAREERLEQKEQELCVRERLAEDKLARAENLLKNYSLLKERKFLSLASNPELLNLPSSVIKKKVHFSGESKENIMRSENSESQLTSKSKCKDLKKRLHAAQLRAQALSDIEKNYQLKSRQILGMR

[13] = target: Ribosomal protein S6 kinase beta-1 (Homo sapiens, UniProt P23443); experiment: Percentage S6K1 activity remaining in the presence of 0.1uM inhibitor
Ribosomal protein S6 kinase beta-1, sequence (P23443 whole entry, looked up): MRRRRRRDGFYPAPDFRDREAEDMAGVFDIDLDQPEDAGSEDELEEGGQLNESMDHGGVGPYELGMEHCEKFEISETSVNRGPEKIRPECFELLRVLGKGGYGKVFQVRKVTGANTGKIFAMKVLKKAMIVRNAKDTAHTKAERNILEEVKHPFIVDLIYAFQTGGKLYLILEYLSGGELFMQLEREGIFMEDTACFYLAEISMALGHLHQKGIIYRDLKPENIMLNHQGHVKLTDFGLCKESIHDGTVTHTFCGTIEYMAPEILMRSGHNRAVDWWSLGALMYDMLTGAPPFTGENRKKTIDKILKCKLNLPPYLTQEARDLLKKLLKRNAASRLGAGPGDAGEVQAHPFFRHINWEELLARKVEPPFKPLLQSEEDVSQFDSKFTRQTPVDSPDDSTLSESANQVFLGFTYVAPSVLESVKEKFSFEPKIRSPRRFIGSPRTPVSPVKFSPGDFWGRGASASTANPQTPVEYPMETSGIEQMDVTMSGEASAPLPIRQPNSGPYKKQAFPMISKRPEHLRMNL

[14] = target: T3, Serine/threonine-protein kinase D1 (Homo sapiens) (UniProt Q15139); experiment: Percentage PKD1 activity remaining in the presence of 0.1uM inhibitor
T3 sequence (whole entry): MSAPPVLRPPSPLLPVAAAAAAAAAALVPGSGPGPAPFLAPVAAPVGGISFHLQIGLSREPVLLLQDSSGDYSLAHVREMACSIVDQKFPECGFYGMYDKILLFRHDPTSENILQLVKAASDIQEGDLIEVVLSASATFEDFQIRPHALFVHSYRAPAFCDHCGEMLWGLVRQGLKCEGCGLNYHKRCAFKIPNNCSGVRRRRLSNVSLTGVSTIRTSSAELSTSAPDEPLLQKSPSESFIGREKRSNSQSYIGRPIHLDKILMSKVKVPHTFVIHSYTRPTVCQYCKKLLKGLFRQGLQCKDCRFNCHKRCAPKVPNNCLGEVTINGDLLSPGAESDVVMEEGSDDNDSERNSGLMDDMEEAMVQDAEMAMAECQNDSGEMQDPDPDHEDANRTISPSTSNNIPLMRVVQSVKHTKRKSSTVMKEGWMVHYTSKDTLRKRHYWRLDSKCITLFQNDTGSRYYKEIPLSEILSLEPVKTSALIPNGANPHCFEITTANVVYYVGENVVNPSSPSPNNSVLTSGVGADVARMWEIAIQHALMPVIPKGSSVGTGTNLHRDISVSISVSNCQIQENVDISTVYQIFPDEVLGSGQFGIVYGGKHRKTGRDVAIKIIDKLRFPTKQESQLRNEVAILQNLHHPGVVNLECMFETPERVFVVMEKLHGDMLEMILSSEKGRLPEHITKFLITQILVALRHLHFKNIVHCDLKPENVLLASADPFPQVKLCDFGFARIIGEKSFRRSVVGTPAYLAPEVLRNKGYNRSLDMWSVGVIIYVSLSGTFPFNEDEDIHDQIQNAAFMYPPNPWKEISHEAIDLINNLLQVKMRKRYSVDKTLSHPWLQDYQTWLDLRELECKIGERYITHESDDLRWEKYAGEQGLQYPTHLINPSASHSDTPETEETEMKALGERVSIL

[15] = target: Serine/threonine-protein kinase PAK 6 (Homo sapiens) (UniProt Q9NQU5); experiment: Percentage PAK6 activity remaining in the presence of 0.1uM inhibitor
Serine/threonine-protein kinase PAK 6 (Homo sapiens), sequence (Q9NQU5 whole entry, looked up): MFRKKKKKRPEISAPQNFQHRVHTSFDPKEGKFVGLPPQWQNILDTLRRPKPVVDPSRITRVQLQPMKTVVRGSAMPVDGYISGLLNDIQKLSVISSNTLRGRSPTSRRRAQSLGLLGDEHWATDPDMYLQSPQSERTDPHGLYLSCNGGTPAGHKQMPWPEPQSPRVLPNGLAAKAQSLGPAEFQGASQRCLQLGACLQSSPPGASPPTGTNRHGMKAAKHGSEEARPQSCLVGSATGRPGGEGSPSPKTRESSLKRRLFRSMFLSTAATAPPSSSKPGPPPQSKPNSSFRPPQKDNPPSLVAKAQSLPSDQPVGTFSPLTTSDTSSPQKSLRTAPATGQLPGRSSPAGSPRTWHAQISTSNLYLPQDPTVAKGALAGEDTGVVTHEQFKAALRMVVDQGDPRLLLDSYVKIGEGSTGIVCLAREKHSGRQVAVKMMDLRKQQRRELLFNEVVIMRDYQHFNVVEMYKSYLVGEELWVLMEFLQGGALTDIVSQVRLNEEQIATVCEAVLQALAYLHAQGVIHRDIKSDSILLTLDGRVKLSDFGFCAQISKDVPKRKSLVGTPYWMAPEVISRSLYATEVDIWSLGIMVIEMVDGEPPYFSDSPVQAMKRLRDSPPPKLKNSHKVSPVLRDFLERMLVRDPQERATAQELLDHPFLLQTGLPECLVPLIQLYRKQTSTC

Homo sapiens = species on record: Homo sapiens; experiment: Percentage PHK activity remaining in the presence of 0.1uM inhibitor

SRSF protein kinase 1 (Homo sapiens), sequence (Q96SB4 whole entry): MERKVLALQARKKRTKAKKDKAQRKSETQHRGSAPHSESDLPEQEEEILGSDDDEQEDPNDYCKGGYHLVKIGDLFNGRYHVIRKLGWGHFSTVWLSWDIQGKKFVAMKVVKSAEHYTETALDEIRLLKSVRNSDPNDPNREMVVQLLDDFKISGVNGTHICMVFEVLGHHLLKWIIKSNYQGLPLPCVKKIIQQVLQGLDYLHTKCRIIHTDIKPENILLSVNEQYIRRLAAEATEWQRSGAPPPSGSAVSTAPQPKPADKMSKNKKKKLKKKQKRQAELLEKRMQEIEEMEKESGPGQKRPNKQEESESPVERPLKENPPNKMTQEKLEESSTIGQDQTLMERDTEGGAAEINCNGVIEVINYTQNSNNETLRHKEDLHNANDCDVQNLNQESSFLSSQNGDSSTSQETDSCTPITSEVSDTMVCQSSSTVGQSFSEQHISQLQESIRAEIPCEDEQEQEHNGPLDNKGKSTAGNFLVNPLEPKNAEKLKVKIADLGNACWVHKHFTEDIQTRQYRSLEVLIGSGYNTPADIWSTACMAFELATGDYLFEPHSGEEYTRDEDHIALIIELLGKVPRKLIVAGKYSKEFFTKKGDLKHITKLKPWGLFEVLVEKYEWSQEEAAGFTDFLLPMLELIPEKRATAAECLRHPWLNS
Tyrosine-protein kinase CSK, sequence (P41240 2-450 limits assumed): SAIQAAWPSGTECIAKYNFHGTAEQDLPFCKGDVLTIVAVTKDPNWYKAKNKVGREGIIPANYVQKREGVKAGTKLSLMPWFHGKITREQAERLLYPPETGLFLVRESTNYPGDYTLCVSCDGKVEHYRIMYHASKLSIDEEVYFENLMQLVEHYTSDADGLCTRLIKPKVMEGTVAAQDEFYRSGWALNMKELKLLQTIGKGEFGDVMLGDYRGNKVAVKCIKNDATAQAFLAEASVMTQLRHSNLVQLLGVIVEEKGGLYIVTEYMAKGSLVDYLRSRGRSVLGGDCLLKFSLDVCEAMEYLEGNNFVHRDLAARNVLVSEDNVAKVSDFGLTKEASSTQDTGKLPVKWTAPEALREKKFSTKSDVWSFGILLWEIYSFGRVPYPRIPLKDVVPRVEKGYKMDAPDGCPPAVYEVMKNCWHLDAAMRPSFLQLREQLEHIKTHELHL

| Compound | Activity [1] [%] | Activity [2] [%] | Activity [3] [%] | Activity [4] [%] | Activity [5] [%] | Activity [6] [%] | Activity [7] [%] | Activity [8] [%] | Activity [9] [%] | Activity [10] [%] | Activity [11] [%] | Activity [12] [%] | Activity [13] [%] | Activity [14] [%] | Activity [15] [%] | Activity (Homo sapiens) [%] | Activity ([5]; filed as antagonist) [%] | Activity ([7]; filed as antagonist) [%] | Activity ([13]; filed as antagonist) [%] | Activity ([14]; filed as antagonist) [%] | also measured |
| --- | --- | --- | --- | --- | --- | --- | --- | --- | --- | --- | --- | --- | --- | --- | --- | --- | --- | --- | --- | --- | --- |
| CC(C)[C@H](CO)Nc1nc(Nc2cccc(Cl)c2)c2ncn(C(C)C)c2n1 [PURVALANOLA] | 79 | 82 | 81 | 106 | 77 | 96 | 91 | 53 | 88 | 95 | 98 | 95 | 87 | 85 | 67 | 85 | – | – | – | – | – |
| Cn1c2ccccc2c2c3c(c4c5ccccc5n(CCC#N)c4c21)CNC3=O | 92 | 75 | 80 | 118 | – | – | – | – | 95 | 100 | – | 87 | – | – | – | – | 2 | 7 | 12 | 5 | Activity ([8]; filed as antagonist): 6%; Activity ([11]; filed as antagonist): 30%; Activity ([15]; filed as antagonist): 6%; Activity (Homo sapiens; filed as antagonist): 1% |
| O=C(NCCCNc1nc(Nc2cccc(NC(=O)N3CCCC3)c2)ncc1I)c1cccs1 | 86 | 101 | 92 | 108 | 74 | 92 | 63 | 81 | 102 | 93 | – | 95 | 84 | – | 85 | 62 | – | – | – | 38 | Activity ([11]; filed as antagonist): 19% |
| CC(C)CCN1c2nc(Nc3cc(F)c(O)c(F)c3)ncc2N(C)C(=O)C1C (stereo not drawn) | 94 | 99 | – | 89 | 90 | 100 | 65 | 90 | 108 | 88 | 96 | 98 | 119 | 63 | 102 | 114 | – | – | – | – | Activity ([3]; filed as antagonist): 5% |
| Cn1cc(C2=C(c3cn(CCCSC(=N)N)c4ccccc34)C(=O)NC2=O)c2ccccc21 | 82 | 77 | 82 | 90 | – | – | – | 79 | 90 | 101 | 103 | 84 | – | 66 | 76 | – | 3 | 16 | 20 | – | Activity ([6]; filed as antagonist): 30%; Activity (Homo sapiens; filed as antagonist): 46% |
| CN(C)C[C@@H]1CCn2cc(c3ccccc32)C2=C(C(=O)NC2=O)c2cn(c3ccccc23)CCO1 | – | 78 | 85 | 114 | – | – | – | 79 | 90 | 90 | 101 | 91 | 52 | – | 81 | – | – | 5 | – | – | Activity ([6]; filed as antagonist): 41%; Activity (Homo sapiens; filed as antagonist): 49% |
| Cc1n[nH]c2ccc(-c3cncc(OC[C@@H](N)Cc4c[nH]c5ccccc45)c3)cc12 | 91 | 93 | 80 | 73 | – | – | – | 96 | 96 | 94 | 80 | 95 | – | – | 87 | 54 | 29 | 13 | 32 | 23 | Activity ([6]; filed as antagonist): 15% |
